The numbers were not newly measured in US9066886B2, “Transdermal drug delivery system containing granisetron” (TAHO PHARMACEUTICALS, LTD., priority 2008, dated 2015), which cites them from elsewhere.

The term Cmax denotes the maximum level reached in the sampled fluid or tissue.

The conditions of the data set: tablet with 1 mg of granisetron; from Korean Patent Laid-Open Publication No. 10-2005-0116365.

Take `CN1C2CCCC1CC(NC(=O)c1nn(C)c3ccccc13)C2` (stereo not shown) [granisetron]: the Cmax was 3.6 ng/mL.
